The source of these data is article PMC10525132, “Potent Antioxidant and Anti-Tyrosinase Activity of Butein and Homobutein Probed by Molecular Kinetic and Mechanistic Studies” (Antioxidants, 2023).

Values joined by “and” are separate entries in the source; they are usually repeats but may differ in a detail not shown here. Identical values can stand only once. Like-named read-outs stand apart in the source and are kept apart here.

The nature of series [1]: Inhibited autoxidation of methyl linoleate in Triton X-100 micelles (O2 uptake kinetics). Here is the method:
Autoxidation studies were performed as previously described, with slight modifications. In a typical experiment, 2.5 mL of air-saturated buffered (PBS, 50 mM, pH 7.4) aqueous dispersion of MeLin (final concentration 2.74 mM) in Triton™ X-100 (final concentration 16 mM) micelles were prepared by vortex mixing. A fresh stock solution of AAPH was added (final concentration 2.5 mM), immediately followed by addition (5–30 μL) of a stock solution of the antioxidant in acetonitrile (final concentration of 1–20 μM) and by additional vortex mixing (5 s). The mixture was sealed in a 2 mL glass vial provided with a PTFE-coated stirring bar and capped with the O2 sensor. The sample was equilibrated at 37 °C in a thermostatted bath equipped with a sealed magnetic stirrer, and oxygen concentration was monitored with time as previously described. Oxygen consumption in the absence of antioxidants was compared with that recorded in the presence of butein, homobutein, or α-tocopherol (α-TOH) as the reference antioxidant. […]. The stoichiometric factor n was determined from the length of the inhibited period τ by Equation (3). The rate of initiation Ri was determined in preliminary experiments using α-TOH as the inhibitor (n = 2) by Equation (3). (1) −d[O2]/dt=kp[RH]Ri/nkinh[AH]+Ri (2) R0/Rinh−Rinh/R0=nkinh[AH]/2ktRi (3) n=Riτ/[AH]
To study the antioxidant activity of butein and homobutein on quantitative grounds, we performed inhibited autoxidation studies using biomimetic neutral micelles of methyl linoleate (MeLin) in aqueous Triton™ X-100 (with 50 mM PBS, pH 7.4, 37 °C), since it is a well-validated model we and others used in previous studies. The reaction kinetics was followed by monitoring oxygen consumption via miniaturized NIR-fluorescence-quenching O2 probes, according to a previously validated protocol, both in the absence and in the presence of different concentrations of butein or homobutein. The reaction was initiated thermally in the aqueous phase by the controlled decomposition of the azo compound AAPH so as to clearly distinguish the chain-breaking mechanism from other efficacies based on interference with the initiation process (e.g., the Fenton reaction by metal chelation) and α-TOH was used as the reference antioxidant.

On the set-up of series [2]: method as in doi:10.1021/ja00310a049. As to conditions: reference value used for calibration, cited from earlier work.
The conditions of series [3]: cited from earlier work.

On to `Cc1c(C)c2c(c(C)c1O)CC[C@@](C)(CCC[C@H](C)CCC[C@H](C)CCCC(C)C)O2` [α-TOH, (R,R,R)-α-tocopherol], for which the “kinh (inhibition rate constant)” value is recorded as 22.4 ± 5.8 10^3 M^−1s^−1 in series [1] (AAPH (2.5 mM) initiated autoxidation of MeLin/Triton X-100 micelles, 37 °C, pH 7.4) and “(2.2 ± 0.6) × 10^4 M^−1s^−1” in series [1] (MeLin in Triton X-100 micelles, pH 7.4, 37 °C). Further, the “n (stoichiometric factor of peroxyl radical trapping)” value in series [2] is 2 and 2 ^2; in series [2] (listed as tocopherol), 2.0. In addition, the BDEOH in series [3] is 77.1 ^3 kcal/mol.
Turning to `CC(C)(C)c1cc(C(C)(C)C)c(O)c(C(C)(C)C)c1` [TBP, 2,4,6-tri-tert-butylphenol], in series [3] (reference phenol), the BDEOH was 80.1 kcal/mol.
`OCCc1ccc(O)c(O)c1` [hydroxytyrosol]: in series [3], the BDEOH is listed as 80.8 kcal/mol.
Regarding `CC(C)(C)c1cc(O)c(O)c(C(C)(C)C)c1` [3,5-di-tert-butylcatechol], the BDEOH in series [3] was 78.2 kcal/mol.
